Assay results: patent US6376497B1, “Antifungal azole derivatives having a fluorinated vinyl group and process for preparing same” (Korea Research Institute of Chemical Technology, priority 1999, dated 2002)

How the values were obtained:
Test in all cases: In vitro antifungal activity, microbroth dilution MIC
Format in all cases: cell-based
[1] = test system: Trichophyton mentagrophytes A. 9129; settings: RPMI-1640, 35° C., no growth observed
In short: (§1)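 Broth microdilution adapted from NCCLS M27, in RPMI-1640 with 0.165 M MOPS, pH 7.0. Yeast or mould inoculum at 2×10^3 CFU/ml was mixed 1:1 with DMSO-derived compound solutions (200 to 0.10 μg/ml before mixing) and incubated at 35 °C for 4 to 48 h. MIC was the concentration showing no growth.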

Candida krusei K. 11655 = settings: RPMI-1640, 35° C., 4 to 48 hours, no growth observed
In short: as §1

[2] = test system: Torulopsis glabrata B. 16205; settings: RPMI-1640, 35° C., 4 to 48 hours, no growth observed
In short: as §1

Candida albicans C1-2 = settings: RPMI-1640, 35° C., 4 to 48 hours, no growth observed
In short: as §1

[3] = test system: Cryptococcus neoformans B. 42419; settings: RPMI-1640, 35° C., 4 to 48 hours, no growth observed
In short: as §1

[4] = test system: Aspergillus furnigatus B. 19119; settings: RPMI-1640, 35° C., no growth observed
In short: as §1

[5] = test system: Trichophyton mentagrophytes B. 32663; settings: RPMI-1640, 35° C., no growth observed
In short: as §1

[6] = test system: Candida parapsitosis A. 7330; settings: RPMI-1640, 35° C., 4 to 48 hours, no growth observed
In short: as §1

[7] = test system: Candida albicans A. 10231; settings: RPMI-1640, 35° C., 4 to 48 hours, no growth observed
In short: as §1

[8] = test system: Candida albicans IFO. 1385; settings: RPMI-1640, 35° C., 4 to 48 hours, no growth observed
In short: as §1

[9] = test system: Candida tropicalis A. 13803; settings: RPMI-1640, 35° C., 4 to 48 hours, no growth observed
In short: as §1

[10] = test system: Cryptococcus neoformans A. 34144; settings: RPMI-1640, 35° C., no growth observed
In short: as §1

[11] = test system: Aspergillus niger A. 16404; settings: RPMI-1640, 35° C., no growth observed
In short: as §1

[12] = test system: Candida pseudotropicalis K. 11658; settings: RPMI-1640, 35° C., 4 to 48 hours, no growth observed
In short: as §1

[13] = test system: Cryptococcus neoformans IFM. 40092; settings: RPMI-1640, 35° C., no growth observed
In short: as §1

| SMILES | Minimal inhibitory concentration(MIC), T. mentagrophytes A. 9129 [1] [µg/mL] | Minimal inhibitory concentration(MIC), C. krusei K. 11655 (Candida krusei K. 11655) [µg/mL] | Minimal inhibitory concentration(MIC), T. glabrata B. 16205 [2] [µg/mL] | Minimal inhibitory concentration(MIC), C. albicans C1-2 (Candida albicans C1-2) [µg/mL] | Minimal inhibitory concentration(MIC), Cry. neoformans B. 42419 [3] [µg/mL] | Minimal inhibitory concentration(MIC), A furnigatus B. 19119 [4] [µg/mL] | Minimal inhibitory concentration(MIC), T. mentagrophytes B. 32663 [5] | Minimal inhibitory concentration(MIC), C. parapsitosis A. 7330 [6] [µg/mL] | Minimal inhibitory concentration(MIC), C. albicans A. 10231 [7] [µg/mL] | Minimal inhibitory concentration(MIC), C. albicans IFO. 1385 [8] [µg/mL] | Minimal inhibitory concentration(MIC), C. tropicalis A. 13803 [9] [µg/mL] | Minimal inhibitory concentration(MIC), Cry. neoformans A. 34144 [10] [µg/mL] | Minimal inhibitory concentration(MIC), A. niger A. 16404 [11] [µg/mL] | Minimal inhibitory concentration(MIC), C. pseudotropicalis K. 11658 [12] [µg/mL] | Minimal inhibitory concentration(MIC), Cry. neoformans IFM. 40092 [13] |
| --- | --- | --- | --- | --- | --- | --- | --- | --- | --- | --- | --- | --- | --- | --- | --- |
| COc1cccc(C(=C(F)N2CCN(c3ccc(OCC4COC(Cn5ccnc5)(c5ccc(F)cc5F)O4)cc3)CC2)C(F)(F)F)c1 (mixture of isomers) [Ex. 143] | 6.25 | 1.56 | 100 | >100 | 0.39 | 100 | 0.78 µg/mL | 3.13 | >100 | 0.39 | >100 | 3.13 | >100 | 6.25 | 0.78 µg/mL |
| COc1ccc(C(=C(F)N2CCN(c3ccc(OCC4COC(Cn5ccnc5)(c5ccc(F)cc5F)O4)cc3)CC2)C(F)(F)F)cc1 (mixture of isomers) [Ex. 144] | 12.5 | 6.25 | >100 | >100 | 0.39 | 100 | 1.56 µg/mL | 3.13 | >100 | 0.39 | >100 | 3.13 | >100 | 1.56 | 0.39 µg/mL |
| FC(=C(c1ccc2c(c1)OCO2)C(F)(F)F)N1CCN(c2ccc(OCC3COC(Cn4ccnc4)(c4ccc(F)cc4F)O3)cc2)CC1 (mixture of isomers) [Ex. 145] | 6.25 | 1.56 | 100 | >100 | 0.78 | 100 | 1.56 µg/mL | 3.13 | >100 | 0.78 | >100 | 3.13 | 100 | 3.13 | 0.78 µg/mL |
| FC(=C(c1ccc(Oc2ccccc2)cc1)C(F)(F)F)N1CCN(c2ccc(OCC3COC(Cn4ccnc4)(c4ccc(F)cc4F)O3)cc2)CC1 (mixture of isomers) [Ex. 146] | 12.5 | 0.78 | 100 | >100 | 0.78 | 100 | 1.56 µg/mL | 1.56 | >100 | 0.78 | >100 | 1.56 | 100 | 0.39 | 0.78 µg/mL |
| FC(=C(c1cccc(F)c1)C(F)(F)F)N1CCN(c2ccc(OCC3COC(Cn4ccnc4)(c4ccc(F)cc4F)O3)cc2)CC1 (mixture of isomers) [Ex. 147] | 3.13 | 0.39 | 50.0 | >100 | 0.78 | 12.5 | ≦0.10 μg/ml | 0.78 | >100 | 0.78 | >100 | 0.78 | 100 | 0.39 | ≦0.10 μg/ml |
| FC(=C(c1ccc(F)cc1)C(F)(F)F)N1CCN(c2ccc(OCC3COC(Cn4ccnc4)(c4ccc(F)cc4F)O3)cc2)CC1 (mixture of isomers) [Ex. 148] | 3.13 | 0.39 | 50.0 | >100 | 0.78 | 6.25 | ≦0.10 μg/ml | 0.78 | >100 | 0.39 | >100 | 0.78 | 100 | 0.78 | ≦0.10 μg/ml |
| FC(=C(c1ccc(Cl)cc1)C(F)(F)F)N1CCN(c2ccc(OCC3COC(Cn4ccnc4)(c4ccc(F)cc4F)O3)cc2)CC1 (mixture of isomers) [Ex. 149] | 3.13 | 0.39 | 50.0 | >100 | 0.39 | 6.25 | ≦0.10 μg/ml | 0.78 | >100 | 0.39 | >100 | 0.78 | 100 | 0.39 | ≦0.10 μg/ml |
